The record followed here is patent US10550130B2, “Benzo-thiazolo-imidazole compounds and uses thereof” (KING SAUD UNIVERSITY, priority 2015, dated 2020).

pIC50: −log10 of the molar value. Bounds are passed on as bounds.

Data set [1] concerns ALDH-positive SKBR3 cells. The data set is described as follows: Aldefluor assay (ALDH-positive cells). Type of data set: cell-based. The method, then:
SKBr3 cells with or without treatment harvested, washed and incubated in aldefluor assay buffer containing an ALDH substrate (BAAA). For negative control, half of the cells of each sample was removed to another FACS tube and incubated under identical condition with DEAB (diethylaminobenzaldehyde), a specific inhibitor of ALDH enzyme.
Because SKBR3 cells include, among various cell lines tested, a particularly high percentage of ALDH-positive cells, SKBR3 cells were selected to evaluate whether KSA-101696 inhibits ALDH-positive cells in vitro.
After two days of treatment with 2.5 μM of KSA-101696, a more that 50% reduction in ALDH-positive cell percentage was observed (FIG. 5A).

The subject of data set [2] is SP cells of MCF-7. Nature of the data set: Mammosphere formation assay. Type of data set: cell-based. The method, then:
(§1) Cell were harvested and counted by using trypan blue to exclude the dead cells. Cells cultured in suspension (1000 cells/100 μL) in serum-free mammary epithelium basal medium, supplemented with B27 supplement 1:50; (GIBCO), 20 ng/mL EGF (epidermal growth factor; Preprotech), 5 μg/mL insulin (Sigma), 1% Antibiotic-Antimycotic (GIBCO) and 0.5 μg/ml hydrocortisone (Sigma), as described previously (Dontu et al.). Mammospheres were allowed to grow for 7 days, then treated for 72 h by either control media (0.1% DMSO) or media containing different concentrations of the compound. Mammospheres were counted on a Leitz Labovert inverted Microscope. Mammosphere size was measured and a picture was taken on a Evos transmitted light microscope.
(§2) It is known that one of the properties of stem/progenitor cells is their ability to survive under anchorage-independent conditions and generate mammospheres, which are composed of a small number of stem cells. Given that CSCs generally make up for a small minority of the cells within cancer cell populations, the dye DyeCycle Violet was used to isolate SP cells (side population cells; the side population is enriched for stem/progenitor cells), through a BD FACSAria™ cell sorter. Subsequently, the isolated SP cells were used in a Mammosphere Formation Assay. SP cells of MCF-7 and BT-474 formed more mammospheres than non-SP cells (see FIG. 4A).
(§3) Treatment of 7 days old mammospheres of both cell lines with 5 μM of KSA-101696 decreased the number of mammospheres formed by 50% compared to DMSO treatment (FIG. 4A).

The test system of data set [3] is SP cells of BT-474. The data set is described as follows: Mammosphere formation assay. Type of data set: cell-based. The note with it: 5 μM, 7 days old mammospheres. The method, then: as §1, §2, §3
The nature of data set [4]: Determination of LD50 value. The method, then: Swiss Webster Albino mice were housed in groups of 2 or 4 in elevated steel wire-mesh cages in a controlled room maintained at a temperature of 22±2° C., relative humidity of 50±10% and a 12 h light-dark cycle. Rodent diet chow (feed) provided by Grain Silos Flour Mills Organization, Riyadh, Saudi Arabia, and tap water for drinking were made available ad lib.
Male mice were divided into various groups (n=10 animals per group). Each group was administered a different dose of the respective compound via the intraperitoneal (i.p.) route. The dose range used was 100-5000 mg/kg.
During the observation periods there was a continuous record of any behavioral changes and clinical symptoms that caused by effects on the central and autonomic nervous systems, the respiratory and the cardiovascular systems or any other action on the gastrointestinal tract, the renal systems, eye, skin, skeletal muscles etc.
During the 72 hour observation period the number of animals that died in every group was recorded. The percentage of death calculated and converted to probits to calculate the LD50 value for each compound in mg/kg. The LD50 value reported in this study provided compounds in their liquid form in the provided concentrations.

The test system of data set [5] is MDA-MB-231 cells. The data set is described as follows: Migration assay. Type of data set: cell-based. As to conditions: Homo sapiens, 2.5 μM to 20 μM, read-out: IC50, migration capacity. The method, then: To assess the metastatic potential of tumor cells, their migration and invasion was evaluated using the 24-well BD BioCoat Matrigel Invasion Chamber as per the manufacturer guideline (BD Bioscience). In brief, 750 μl of migration buffer (serum-free media with or without treatment) or chemoattractants (serum-containing media) were added to the lower wells. Cells were washed three times in migration media and 500 μl (1-2×10^5) of cells were added to the upper wells separated by an 8 micron pore size PET membrane with a thin layer of matrigel basement membrane matrix (for invasion) or without (for migration). The membranes were stained with Diff Quick stain (Fisher Scientific) after removing the non-migrated cells from the top of the membrane with Q-tips. After air drying, the membranes were cut and mounted on slides with oil and cells that had migrated to the underside of the filter were counted using a light microscope (Zeiss Axio Observer) in five randomly selected fields (magnification: 40×). Each assay was performed in triplicate and repeated at least five times. The results were expressed as mean±SD of migrating cells per field counted (FIGS. 6A-6B).

The LD50 is the dose expected to kill half of the subjects tested. Higher therefore signals lower toxicity. As to `COc1ccc(-c2csc3nc4ccccc4n23)cc1` [KSA-101696, 3-(4-methoxyphenyl)benzo[4,5]imidazo[2,1-b]thiazole], in data set [1] (2.5 μM, two days), the “reduction in ALDH-positive cell percentage” value is more than 50%. Moreover, the pIC50 was approximately 5.70 in data set [1] (Homo sapiens, SK-BR-3) and approximately 5.12 in data set [5]. Further, the “decrease of number of mammospheres formed compared to DMSO” value in data set [2] (MCF-7, 5 μM, 7 days old mammospheres) worked out at 50%; in data set [3], 50%. The “size of treated mammospheres” value in data set [2] (cell line not specified (FIG. 4B)) is “reduction in the size”. The “Therapeutic ratio = LD50/ED50” value in data set [4] (intraperitoneal) is given as 40. Besides, in data set [4] (male, Swiss Webster Albino, mouse, in vivo, ip), the LD50 at 72 h is 2000 mg/kg.
